Assay results as given in ChEMBL document CHEMBL3885861, “Open TG-GATES”.

Organism: Rattus norvegicus
Assay: Open TG-GATES - Regimen: Single
Assay type: toxicity, organism-based, Sprague-Dawley
Parameters: regimen Single, gender Male, age 6 weeks
Settings: in vivo, po, 10 mg/kg, route gavage, dose level Low; for gamma-GTP / ALP / ALT / AST / BUN / CRE / Ca / DBIL / GLC / IP / K / LDH / Na / PL / RALB / TBIL / TC / TG / TP: tissue Plasma; for KIDNEY_L / KIDNEY_R / KIDNEY_TOTAL: tissue Kidney; for LIVER: tissue Liver

For `CSc1ccc2c(c1)N(CCC1CCCCN1C)c1ccccc1S2` (configuration not stated) [THIORIDAZINE], which gamma-GTP (6 h) is on record?
Its gamma-GTP is 3.2 IU/L.

And the TERMINAL_BW (9 h)?
The TERMINAL_BW was 213.3 g.

What about the APTT (9 h, tissue Blood) of the same compound?
Its APTT is 16.6 s.

What about the Bas (9 h, tissue Blood) of the same compound?
Its Bas is 0%.

What about the Eos (9 h, tissue Blood) of the same compound?
The Eos was 1%.

And the Fbg (9 h, tissue Blood)?
The Fbg was 209.6 mg/dL.

What about the Hb (9 h, tissue Blood) of the same compound?
The Hb was 12.7 g/dL.

And the Ht (9 h, tissue Blood)?
Its Ht is 38.5%.

And the Lym (9 h, tissue Blood)?
Its Lym is 72.4%.

And the MCH (9 h, tissue Blood)?
Its MCH is 21.3 pg.

And the MCHC (9 h, tissue Blood)?
The MCHC was 33.1%.

What about the MCV (9 h, tissue Blood) of the same compound?
The MCV was 64.5 fL.

And the Mono (9 h, tissue Blood)?
Its Mono is 6.4%.

And the Neu (9 h, tissue Blood)?
Its Neu is 20.6%.

What about the PT (9 h, tissue Blood) of the same compound?
The PT was 12.3 s.

And the Plat (9 h, tissue Blood)?
The Plat was 105.4 x10_4/uL.

What about the RBC (9 h, tissue Blood) of the same compound?
Its RBC is 598.2 x10_4/ul.

What about the Ret (9 h, tissue Blood) of the same compound?
The Ret was 8.1%.

What about the WBC (9 h, tissue Blood) of the same compound?
Its WBC is 80.7 x10_2/uL.

And the KIDNEY_L (9 h)?
Its KIDNEY_L is 1 g.

And the KIDNEY_R (9 h)?
Its KIDNEY_R is 1 g.

What about the KIDNEY_TOTAL (9 h) of the same compound?
The KIDNEY_TOTAL was 2.1 g.

What about the LIVER (9 h) of the same compound?
The LIVER was 9.6 g.

And the ALP (9 h)?
The ALP was 749.8 IU/L.

And the ALT (9 h)?
The ALT was 29.4 IU/L.

What about the AST (9 h) of the same compound?
The AST was 64.4 IU/L.

What about the BUN (9 h) of the same compound?
The BUN was 11.2 mg/dL.

And the CRE (9 h)?
The CRE was 0.6 mg/dL.

What about the Ca (9 h) of the same compound?
Its Ca is 10.8 mg/dL.

What about the DBIL (9 h) of the same compound?
Its DBIL is 0.034 mg/dL.

What about the GLC (9 h) of the same compound?
The GLC was 195.4 mg/dL.

And the IP (9 h)?
Its IP is 10.7 mg/dL.

And the K (9 h)?
Its K is 5.1 meq/L.

What about the LDH (9 h) of the same compound?
The LDH was 66.8 IU/L.

And the Na (9 h)?
Its Na is 140 meq/L.

And the PL (9 h)?
The PL was 142.2 mg/dL.

And the RALB (9 h)?
The RALB was 3.8 g/dL.

And the TBIL (9 h)?
Its TBIL is 0.4 mg/dL.

What about the TC (9 h) of the same compound?
Its TC is 77.4 mg/dL.

And the TG (9 h)?
The TG was 31.4 mg/dL.

What about the TP (9 h) of the same compound?
The TP was 5.3 g/dL.

What about the gamma-GTP (9 h) of the same compound?
Its gamma-GTP is 1.6 IU/L.

And the TERMINAL_BW (24 h)?
Its TERMINAL_BW is 232.6 g.

What about the APTT (24 h, tissue Blood) of the same compound?
The APTT was 16.5 s.

What about the Bas (24 h, tissue Blood) of the same compound?
The Bas was 0%.

What about the Eos (24 h, tissue Blood) of the same compound?
Its Eos is 1%.

What about the Fbg (24 h, tissue Blood) of the same compound?
Its Fbg is 215.4 mg/dL.

And the Hb (24 h, tissue Blood)?
The Hb was 13 g/dL.

What about the Ht (24 h, tissue Blood) of the same compound?
Its Ht is 39.1%.

What about the Lym (24 h, tissue Blood) of the same compound?
Its Lym is 80.4%.

And the MCH (24 h, tissue Blood)?
The MCH was 21.8 pg.

And the MCHC (24 h, tissue Blood)?
Its MCHC is 33.3%.

What about the MCV (24 h, tissue Blood) of the same compound?
Its MCV is 65.3 fL.

What about the Mono (24 h, tissue Blood) of the same compound?
Its Mono is 6.6%.

What about the Neu (24 h, tissue Blood) of the same compound?
Its Neu is 11.8%.

And the PT (24 h, tissue Blood)?
Its PT is 12.2 s.

What about the RBC (24 h, tissue Blood) of the same compound?
Its RBC is 599.2 x10_4/ul.

And the Ret (24 h, tissue Blood)?
The Ret was 8.2%.

What about the WBC (24 h, tissue Blood) of the same compound?
The WBC was 132.3 x10_2/uL.

And the KIDNEY_L (24 h)?
Its KIDNEY_L is 1 g.

What about the KIDNEY_R (24 h) of the same compound?
Its KIDNEY_R is 1 g.

And the KIDNEY_TOTAL (24 h)?
The KIDNEY_TOTAL was 2 g.

What about the LIVER (24 h) of the same compound?
Its LIVER is 11.9 g.

And the ALP (24 h)?
The ALP was 799.2 IU/L.

What about the ALT (24 h) of the same compound?
Its ALT is 39.6 IU/L.

And the AST (24 h)?
Its AST is 68.6 IU/L.

What about the BUN (24 h) of the same compound?
Its BUN is 19 mg/dL.

What about the CRE (24 h) of the same compound?
The CRE was 0.5 mg/dL.

What about the Ca (24 h) of the same compound?
Its Ca is 11.3 mg/dL.

What about the DBIL (24 h) of the same compound?
The DBIL was 0.074 mg/dL.

And the GLC (24 h)?
The GLC was 193.6 mg/dL.

And the IP (24 h)?
Its IP is 8.7 mg/dL.

And the K (24 h)?
Its K is 4.9 meq/L.

And the LDH (24 h)?
Its LDH is 77.4 IU/L.

What about the Na (24 h) of the same compound?
Its Na is 138.2 meq/L.

What about the PL (24 h) of the same compound?
Its PL is 154.8 mg/dL.

And the RALB (24 h)?
The RALB was 4 g/dL.

What about the TBIL (24 h) of the same compound?
The TBIL was 0.4 mg/dL.

And the TC (24 h)?
The TC was 81 mg/dL.

And the TG (24 h)?
Its TG is 116.8 mg/dL.

What about the TP (24 h) of the same compound?
The TP was 5.8 g/dL.

What about the gamma-GTP (24 h) of the same compound?
Its gamma-GTP is 1.4 IU/L.
